Laboratory results as given in PubChem BioAssay AID179 (DTP/NCI, 2004).
Active and inactive are the calls of the source.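 Rule for the calls: active = compounds giving half or more protection of infected cells from virus-caused growth loss, again on retest; inactive = the rest.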

System: CEM cells HIV-1 protection, formazan growth assay
Test: NCI AIDS Antiviral Assay
Conditions: for IC50: measured here: growth of uninfected CEM cells
How it was run: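 Soluble formazan readout of cell growth; CEM cells ± HIV-1; 5 drug concs. ≥50% protection → retest; ≥50% again = moderately active; reproducible 100% = confirmed active.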

| Structure (SMILES) | EC50 | IC50 | outcome |
| --- | --- | --- | --- |
| CC[C@@H](C)C(=O)O[C@H]1[C@H](O)[C@H]2[C@@H](CN3C[C@@H](C)CC[C@H]3[C@@]2(C)O)[C@@H]2CC34O[C@]5(O)[C@@H](OC(=O)[C@@](C)(O)CC)CC[C@@]3(C)[C@@H]5[C@@H](OC(C)=O)[C@@H](OC(C)=O)[C@H]4[C@@]21O | > 200 µM | > 200 µM |  |
| O=C1/C(=C/c2ccc(O)cc2)CC/C1=C\c1ccc(O)cc1 | > 200 µM | 31.6 µM |  |
| NC(N)=NS(=O)(=O)c1ccc(NC(=O)c2cccc3c(=O)c4ccccc4[nH]c23)cc1 |  |  | inactive |
| Cn1c2c(c3ccccc31)CCN(CCN1CCN(c3cccc(Cl)c3)CC1)C2=O | > 8.51 µM | > 8.51 µM |  |
| COC(Cc1ccccc1)NC(=O)[C@@]12CCCC[C@@H]1C=Cc1ccccc12 (stereo partly specified) | > 55 µM | 22.9 µM |  |
| CO[C@@H]1[C@H](O)c2coc3c2[C@@](C)(c2ccc4c(c2C3=O)CCC4=O)[C@@H]1O | > 200 µM | 28.8 µM |  |
| CC1(C)O[C@H]2OC3CCC(=O)CC3(O)[C@H]2O1 (stereo partly specified) |  |  | inactive |
| S=C(N/N=C/c1ccccn1)N1CC2CCC(CC2)C1 | > 200 µM | 0.0631 µM |  |
| Nc1nc(Cl)cc(NCC2(CO)CC(=O)C2)n1 | > 200 µM | > 200 µM |  |
| O=C(O)c1ccc(NC(=O)C2C(=O)C(=O)N(c3ccc(C(=O)O)cc3)C2=O)cc1 (stereo unspecified) | > 47.9 µM | > 47.9 µM |  |
| c1ccc2c(c1)CCc1c-2n(CCN2CCCCC2)c2ccccc12 | > 200 µM | 10.7 µM |  |
| O=c1c(-c2cccc(O)c2)coc2cc(O)c(O)cc12 | > 200 µM | 10.5 µM |  |
| O=C1NN2CCN=C2c2cnccc21 | > 1320 µM | > 1320 µM |  |
| Cc1cccc(C2=C/C(=C(\SS/C(C(=O)c3ccc(OCC(=O)O)c(Cl)c3Cl)=C3\C=C(c4cccc(C)c4)SS3)C(=O)c3ccc(OCC(=O)O)c(Cl)c3Cl)SS2)c1 |  |  | inactive |
| Cc1cc(N=Nc2ccc(NC(=O)c3ccc(N)cc3)cc2C)ccc1N=Nc1ccc2c(O)c(N=Nc3ccc(S(=O)(=O)O)cc3)c(S(=O)(=O)O)cc2c1 | 15.1 µM | 105 µM |  |
| CCOC(=O)c1ccc(-c2cccs2)[nH]1 | > 200 µM | 38.9 µM |  |
| CC(=O)C1N=Nc2nc3c(=O)n(C)c(=O)n(C)c3n2C1=O (stereo unspecified) | > 200 µM | > 200 µM |  |
| COc1cc2c(cc1O)C1COc3cc4c(cc3C1O2)CCC(C)(C)O4 (stereo unspecified) | > 200 µM | 11.5 µM |  |
| CCOC(=O)/C(C#N)=N\Nc1ccc(-n2c(C)nc3ccccc3c2=O)cc1 | > 200 µM | 89.1 µM |  |
| Cc1nc2ccccc2c2nnc(SCC(=O)N(Cc3ccccc3)c3ccccc3)n12 | > 200 µM | > 200 µM |  |

| Structure (SMILES) | EC50 | IC50 | outcome |
| --- | --- | --- | --- |
| Cc1nnc2c([N+](=O)[O-])c(N)c(Cl)nn12 | > 200 µM | 1.29 µM |  |
| COc1ccc(C2CC(c3c(O)ccc4ccccc34)=NN2C(C)=O)cc1OC (stereo unspecified) | > 200 µM | 46.8 µM |  |
| CCOC(=O)C(=CNC(=S)Nc1cc(C)ccc1C)C(=O)OCC | > 200 µM | > 200 µM |  |
| O=C(O)CN1CCN(CC(=O)N2CCN(C(=O)OCc3ccccc3)CC2)CCN(CC(=O)O)CCN(CC(=O)N2CCN(C(=O)OCc3ccccc3)CC2)CC1 | > 200 µM | > 200 µM |  |
| COC(=O)C1=C(C(=O)OC)C2C(C)=CC(C)=CN2C(C(=O)OC)=C1C(=O)OC (stereo unspecified) | > 200 µM | > 200 µM |  |
| COc1ccccc1N1CCN(Cn2c(=O)oc3cccnc32)CC1 | > 200 µM | 60.3 µM |  |
| O=C(CC(=O)c1cccnc1)NC(=O)c1ccccc1 | > 355 µM | > 355 µM |  |
| NC(=O)ON=C1CCN(Cc2ccccc2)CC1 | > 200 µM | > 200 µM |  |
| CC1(C)CCCCCC(O)C(O)CCC(C)(C)C1=O (stereo unspecified) | > 200 µM | > 200 µM |  |
| O=S(CCc1ccccc1)Nc1ccccc1 (stereo unspecified) | > 200 µM | > 200 µM |  |
| O=S(=O)(O)c1cc(NC(=S)c2ccc3cccnc3c2O)ccc1/C=C/c1ccc(NC(=S)c2ccc3cccnc3c2O)cc1S(=O)(=O)O | 13.8 µM | 72.4 µM |  |
| Cc1cc(=O)n2nc(CSc3nnc(N)s3)sc2n1 | > 200 µM | > 200 µM |  |
| C[S+](C)c1ccccc1 | > 1050 µM | 457 µM |  |
| Nc1ccccc1N1C(=O)C(Cl)=C(Cl)C1=O |  |  | inactive |
| COc1cc2c(c([N+](=O)[O-])c1)NC(=O)CC(C)S2 (stereo unspecified) | 95.5 µM | 148 µM |  |
| CCCCCCC(c1cc(Cl)c(OC)c(C(=O)OC)c1)c1cc(Cl)c(OC)c(C(=O)OC)c1 | > 36.3 µM | > 36.3 µM |  |
| CC(C)=CCC/C(C)=C/CN1Cc2cccc3[nH]c(=S)n(c23)CC1C (stereo unspecified) | > 18.2 µM |  |  |
| COC(=O)CC1C(COC(C)=O)OC(n2cc(C)c(=O)[nH]c2=O)C1OC(C)=O (stereo unspecified) |  |  | inactive |
| CC(C)=CCc1c2c(c3occ(-c4ccc(O)c(O)c4)c(=O)c3c1O)C=CC(C)(C)O2 | > 200 µM | 39.8 µM |  |
| CN1CCOC(C(NC(=O)c2ccccc2)c2ccccc2)C1=O (stereo unspecified) | > 200 µM | > 200 µM |  |

| Structure (SMILES) | EC50 | IC50 | outcome |
| --- | --- | --- | --- |
| O=C(O)C12C3C4C1C1C2C3C41I (stereo unspecified) | > 479 µM | > 479 µM |  |
| Cc1nc2c(sc(=S)n2-c2ccccc2)c2nc3ccccc3n12 | > 2.09 µM | > 2.09 µM |  |
| N#Cc1sc2c(c1OC(=O)c1ccco1)c(=O)n(-c1ccccc1)c(=S)n2-c1ccccc1 | > 200 µM | 12.3 µM |  |
| C[C@@]12c3c4ccc(C=O)c3Oc3ccc(C=O)c(c31)Oc1c(C=O)ccc(c12)O4 | > 50.1 µM | > 50.1 µM |  |
| Cc1cc(C)c(C2CC(O)C(CO)O2)cc1C (stereo unspecified) | > 200 µM | > 200 µM |  |
| Cn1c(=O)c2cc(O)cnc2n(C)c1=O | > 200 µM | > 200 µM |  |
| O=c1[nH]c(=O)n(C2CC(O)C(CO)O2)cc1Oc1ccccc1 (stereo unspecified) | > 200 µM | > 200 µM |  |
| CCCCCC1CC2=C(C(=O)OC2=O)C(O)C(O)(CCCC)CC2=C1C(=O)OC2=O (stereo unspecified) | > 85.1 µM | > 85.1 µM |  |
| Cc1ccc(NC(=O)NC23CC4CC(CC(F)(C4)C2)C3)cc1 | > 61.7 µM | > 61.7 µM |  |
| Cc1ccc([P+](CCN2C(=O)c3ccccc3C2=O)(c2ccc(C)cc2)c2ccc(C)cc2)cc1 | > 200 µM | 10 µM |  |
| CC(CCC#N)(CCC#N)C(=O)CC(O)(C(F)(F)F)C(F)(F)F | > 200 µM | 2.34 µM |  |
| O=S(Cc1ccccn1)c1nc2ccccc2nc1-c1ccccc1 (stereo unspecified) | > 28.8 µM | > 28.8 µM |  |
| NC(Cc1ccccc1)C(=O)N[C@H]1c2ccsc2/C(=N/O)[C@H]1O (stereo partly specified) | > 200 µM | > 200 µM |  |
| [N-]=[N+]=NCC(CO)OCn1cc(Cc2ccccc2)c(=O)[nH]c1=O (stereo unspecified) |  |  | inactive |
| CCOC(=O)C(C(C)=O)C(CC(=O)OC)NC(=O)OCc1ccccc1 (stereo unspecified) | > 257 µM | > 257 µM |  |
| O=C(N/N=C(\c1ccccc1)c1ccccn1)NC1CCCCC1 |  |  | inactive |
| COC(=O)C1=C(C(=O)OC)C2(C)OC1C(=O)C21CC1 (stereo unspecified) |  |  | inactive |
| COc1ccc(-c2cc(=O)c3c(OC)c(OC)c(OC)c(OC)c3o2)c(OC)c1 | > 200 µM | 20.4 µM |  |
| CN(C)C1C(=O)C(C(=O)NC[N+]23CCO[B-]2(c2ccc(Cl)cc2)OCC3)=C(O)C2(O)C(=O)C3=C(O)c4c(O)cccc4C(C)(O)C3CC12 (stereo unspecified) | > 27.5 µM | > 27.5 µM |  |
| C=C1[C@H](OC(=O)C(C)C)[C@@H](OC(C)=O)[C@@H](OC(C)=O)C(C)(C)[C@@H]2O[C@H]2[C@@H](C)C(=O)[C@@]2(OC(C)=O)C[C@@](C)(OC(C)=O)[C@H](OC(C)=O)[C@@H]2[C@H]1OC(C)=O | > 200 µM | > 200 µM |  |
